Assay results reported in patent EP4467141A1, “PYRAZOLO-QUINOLINES AS SELECTIVE INHIBITORS OF GENOTOXIC STRESS-INDUCED IKK/NF- KB PATHWAYS FOR CANCER THERAPY” (Max-Delbrück-Centrum für Molekulare Medizin in der …, priority 2023, dated 2024).

Key:
Assay in all cases: Kinase panel study
Assay type in all cases: biochemical
Conditions in all cases: read-out: Percentage of inhibition; for inhibition at 1 µM: 1000nM; for inhibition at 10 µM: 10000nM
[1] = biological target: T1, AURKC (Aurora C) (Homo sapiens, UniProt Q9UQB9)
T1 construct: purchased Thermo Fisher Scientific
T1 sequence (Q9UQB9 1-309): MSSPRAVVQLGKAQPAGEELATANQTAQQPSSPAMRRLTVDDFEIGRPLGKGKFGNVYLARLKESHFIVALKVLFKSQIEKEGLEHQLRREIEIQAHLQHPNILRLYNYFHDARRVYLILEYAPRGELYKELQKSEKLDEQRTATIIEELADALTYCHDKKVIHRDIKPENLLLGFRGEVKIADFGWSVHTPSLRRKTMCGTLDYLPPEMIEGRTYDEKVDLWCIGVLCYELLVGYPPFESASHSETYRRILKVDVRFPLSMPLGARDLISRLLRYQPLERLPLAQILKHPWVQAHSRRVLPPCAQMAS
Outline: (§1)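 A commercial kinase profiling service ran the assays according to its ZLyte or Adapta standard protocols. Compound was present at 10 µM or 1 µM, and kinase activity loss was expressed as percent inhibition.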

[2] = biological target: T2, AXL (Homo sapiens, UniProt P30530)
T2 construct: purchased Thermo Fisher Scientific
T2 sequence (P30530 26-894): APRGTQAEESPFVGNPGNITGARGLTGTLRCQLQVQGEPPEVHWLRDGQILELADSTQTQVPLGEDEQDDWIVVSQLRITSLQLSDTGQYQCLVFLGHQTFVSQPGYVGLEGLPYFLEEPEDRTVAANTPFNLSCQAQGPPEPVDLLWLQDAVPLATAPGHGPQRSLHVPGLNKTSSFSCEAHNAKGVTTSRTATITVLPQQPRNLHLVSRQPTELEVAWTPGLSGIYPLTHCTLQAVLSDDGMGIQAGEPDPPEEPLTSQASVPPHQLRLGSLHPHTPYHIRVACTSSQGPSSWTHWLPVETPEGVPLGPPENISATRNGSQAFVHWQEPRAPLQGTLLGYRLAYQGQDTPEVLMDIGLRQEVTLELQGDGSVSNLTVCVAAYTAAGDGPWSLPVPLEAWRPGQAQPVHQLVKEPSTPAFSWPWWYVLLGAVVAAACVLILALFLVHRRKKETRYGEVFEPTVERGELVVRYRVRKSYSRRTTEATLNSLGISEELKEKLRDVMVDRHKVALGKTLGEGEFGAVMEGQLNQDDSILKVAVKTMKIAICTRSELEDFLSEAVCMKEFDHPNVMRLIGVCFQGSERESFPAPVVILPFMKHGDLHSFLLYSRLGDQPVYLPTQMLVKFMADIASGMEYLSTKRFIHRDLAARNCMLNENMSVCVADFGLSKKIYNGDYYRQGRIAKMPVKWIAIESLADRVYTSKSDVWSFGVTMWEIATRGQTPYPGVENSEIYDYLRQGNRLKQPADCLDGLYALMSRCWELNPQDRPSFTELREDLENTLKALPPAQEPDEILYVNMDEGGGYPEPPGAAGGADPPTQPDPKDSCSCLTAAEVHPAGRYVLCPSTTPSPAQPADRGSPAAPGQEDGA
Outline: as §1

[3] = biological target: T3, TEK (Tie2) (Homo sapiens, UniProt Q02763)
T3 construct: purchased Thermo Fisher Scientific
T3 sequence (Q02763 23-1124): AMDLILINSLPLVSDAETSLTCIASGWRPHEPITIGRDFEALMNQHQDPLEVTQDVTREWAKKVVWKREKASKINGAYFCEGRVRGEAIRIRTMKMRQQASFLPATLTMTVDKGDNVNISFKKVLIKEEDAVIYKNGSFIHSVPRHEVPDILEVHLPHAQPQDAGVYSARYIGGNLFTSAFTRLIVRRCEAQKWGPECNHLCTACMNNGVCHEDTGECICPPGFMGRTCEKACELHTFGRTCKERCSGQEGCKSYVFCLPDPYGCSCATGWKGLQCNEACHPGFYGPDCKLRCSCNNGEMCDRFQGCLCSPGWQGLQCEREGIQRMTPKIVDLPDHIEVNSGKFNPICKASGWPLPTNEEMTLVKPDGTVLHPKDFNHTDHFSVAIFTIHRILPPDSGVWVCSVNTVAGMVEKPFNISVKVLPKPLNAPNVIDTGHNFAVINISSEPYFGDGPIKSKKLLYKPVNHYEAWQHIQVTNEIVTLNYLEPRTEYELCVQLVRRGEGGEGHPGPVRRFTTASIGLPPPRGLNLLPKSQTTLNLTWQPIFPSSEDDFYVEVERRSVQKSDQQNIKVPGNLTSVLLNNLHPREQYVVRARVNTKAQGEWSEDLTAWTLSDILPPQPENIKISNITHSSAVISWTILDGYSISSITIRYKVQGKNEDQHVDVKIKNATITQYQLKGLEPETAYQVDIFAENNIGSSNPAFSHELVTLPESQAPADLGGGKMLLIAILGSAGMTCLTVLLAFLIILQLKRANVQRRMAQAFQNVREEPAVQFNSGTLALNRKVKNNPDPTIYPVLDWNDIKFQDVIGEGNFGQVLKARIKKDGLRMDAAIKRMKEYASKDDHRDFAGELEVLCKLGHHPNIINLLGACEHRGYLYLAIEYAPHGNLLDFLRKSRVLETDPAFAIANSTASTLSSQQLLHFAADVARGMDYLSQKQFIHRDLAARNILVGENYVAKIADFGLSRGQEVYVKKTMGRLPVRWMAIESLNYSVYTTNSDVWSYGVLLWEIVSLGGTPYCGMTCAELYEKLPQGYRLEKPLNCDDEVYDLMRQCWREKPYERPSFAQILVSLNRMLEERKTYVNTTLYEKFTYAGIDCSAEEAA
Outline: as §1

[4] = biological target: T4, MAP4K4 (HGK) (Homo sapiens, UniProt O95819)
T4 construct: purchased Thermo Fisher Scientific
Outline: as §1

[5] = biological target: T5, CDC42 BPA (MRCKA) (Homo sapiens, UniProt Q5VT25)
T5 construct: purchased Thermo Fisher Scientific
T5 sequence (Q5VT25 whole entry): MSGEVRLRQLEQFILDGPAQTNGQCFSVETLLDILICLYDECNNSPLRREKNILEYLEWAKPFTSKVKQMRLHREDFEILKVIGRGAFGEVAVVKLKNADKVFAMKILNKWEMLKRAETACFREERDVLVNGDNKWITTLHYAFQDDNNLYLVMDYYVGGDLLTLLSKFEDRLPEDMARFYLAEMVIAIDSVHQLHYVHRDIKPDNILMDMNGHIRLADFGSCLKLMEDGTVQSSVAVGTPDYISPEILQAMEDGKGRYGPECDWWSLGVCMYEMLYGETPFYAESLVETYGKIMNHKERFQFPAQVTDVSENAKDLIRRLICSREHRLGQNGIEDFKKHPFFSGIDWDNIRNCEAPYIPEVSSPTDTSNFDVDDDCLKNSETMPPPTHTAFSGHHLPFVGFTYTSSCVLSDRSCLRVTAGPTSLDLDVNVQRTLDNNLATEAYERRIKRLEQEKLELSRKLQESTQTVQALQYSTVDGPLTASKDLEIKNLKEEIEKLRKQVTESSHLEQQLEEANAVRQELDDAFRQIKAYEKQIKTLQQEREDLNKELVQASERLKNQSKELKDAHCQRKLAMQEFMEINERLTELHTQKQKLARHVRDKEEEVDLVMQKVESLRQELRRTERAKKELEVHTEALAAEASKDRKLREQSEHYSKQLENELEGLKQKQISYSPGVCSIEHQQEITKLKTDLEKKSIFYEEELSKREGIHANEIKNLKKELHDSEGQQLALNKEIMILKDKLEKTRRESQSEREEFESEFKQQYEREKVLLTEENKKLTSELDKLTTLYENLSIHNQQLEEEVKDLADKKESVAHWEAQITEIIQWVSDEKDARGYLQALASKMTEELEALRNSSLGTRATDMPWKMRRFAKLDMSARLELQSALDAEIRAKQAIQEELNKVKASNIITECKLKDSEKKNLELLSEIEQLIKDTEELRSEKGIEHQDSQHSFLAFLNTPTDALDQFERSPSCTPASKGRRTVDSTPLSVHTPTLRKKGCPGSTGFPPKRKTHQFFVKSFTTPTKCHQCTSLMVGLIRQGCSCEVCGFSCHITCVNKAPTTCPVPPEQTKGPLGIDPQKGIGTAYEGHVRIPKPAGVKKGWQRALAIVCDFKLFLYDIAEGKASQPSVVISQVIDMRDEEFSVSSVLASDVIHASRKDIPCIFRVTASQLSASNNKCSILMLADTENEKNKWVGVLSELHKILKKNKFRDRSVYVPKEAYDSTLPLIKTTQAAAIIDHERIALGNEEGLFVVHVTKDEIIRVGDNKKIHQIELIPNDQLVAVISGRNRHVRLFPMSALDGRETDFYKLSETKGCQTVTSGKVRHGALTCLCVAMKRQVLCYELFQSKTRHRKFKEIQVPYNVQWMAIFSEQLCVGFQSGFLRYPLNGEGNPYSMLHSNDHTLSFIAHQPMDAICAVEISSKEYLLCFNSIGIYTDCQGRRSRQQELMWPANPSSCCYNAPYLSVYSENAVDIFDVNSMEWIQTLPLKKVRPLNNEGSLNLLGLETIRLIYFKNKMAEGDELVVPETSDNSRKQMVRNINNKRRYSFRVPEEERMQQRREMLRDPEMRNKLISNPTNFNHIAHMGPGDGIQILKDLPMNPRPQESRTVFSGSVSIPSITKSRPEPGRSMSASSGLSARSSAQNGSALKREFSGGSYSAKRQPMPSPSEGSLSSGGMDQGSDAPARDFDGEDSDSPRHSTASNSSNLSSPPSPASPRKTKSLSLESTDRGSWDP
Outline: as §1

[6] = biological target: T6, SGKL (SGK3) (Homo sapiens, UniProt Q96BR1)
T6 construct: purchased Thermo Fisher Scientific
T6 sequence (Q96BR1 1-496): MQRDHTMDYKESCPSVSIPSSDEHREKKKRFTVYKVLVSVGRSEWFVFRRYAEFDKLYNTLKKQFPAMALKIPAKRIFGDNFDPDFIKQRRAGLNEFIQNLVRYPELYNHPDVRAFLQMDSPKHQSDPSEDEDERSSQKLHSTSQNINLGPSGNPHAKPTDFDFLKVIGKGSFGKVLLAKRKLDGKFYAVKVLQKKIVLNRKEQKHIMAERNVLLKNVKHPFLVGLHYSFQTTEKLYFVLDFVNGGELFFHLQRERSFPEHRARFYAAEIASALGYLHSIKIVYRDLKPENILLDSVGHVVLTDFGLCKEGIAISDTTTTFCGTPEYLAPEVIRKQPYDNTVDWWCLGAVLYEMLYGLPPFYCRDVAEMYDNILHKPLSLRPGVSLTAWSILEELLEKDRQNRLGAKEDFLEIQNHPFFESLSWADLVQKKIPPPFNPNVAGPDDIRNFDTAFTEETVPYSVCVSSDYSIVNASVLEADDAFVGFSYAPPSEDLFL
Outline: as §1

[7] = biological target: T7, PRKCB2 (PKC beta II) (Homo sapiens, UniProt P05771)
T7 construct: purchased Thermo Fisher Scientific
T7 sequence (P05771 1-673 isoform P05771-2): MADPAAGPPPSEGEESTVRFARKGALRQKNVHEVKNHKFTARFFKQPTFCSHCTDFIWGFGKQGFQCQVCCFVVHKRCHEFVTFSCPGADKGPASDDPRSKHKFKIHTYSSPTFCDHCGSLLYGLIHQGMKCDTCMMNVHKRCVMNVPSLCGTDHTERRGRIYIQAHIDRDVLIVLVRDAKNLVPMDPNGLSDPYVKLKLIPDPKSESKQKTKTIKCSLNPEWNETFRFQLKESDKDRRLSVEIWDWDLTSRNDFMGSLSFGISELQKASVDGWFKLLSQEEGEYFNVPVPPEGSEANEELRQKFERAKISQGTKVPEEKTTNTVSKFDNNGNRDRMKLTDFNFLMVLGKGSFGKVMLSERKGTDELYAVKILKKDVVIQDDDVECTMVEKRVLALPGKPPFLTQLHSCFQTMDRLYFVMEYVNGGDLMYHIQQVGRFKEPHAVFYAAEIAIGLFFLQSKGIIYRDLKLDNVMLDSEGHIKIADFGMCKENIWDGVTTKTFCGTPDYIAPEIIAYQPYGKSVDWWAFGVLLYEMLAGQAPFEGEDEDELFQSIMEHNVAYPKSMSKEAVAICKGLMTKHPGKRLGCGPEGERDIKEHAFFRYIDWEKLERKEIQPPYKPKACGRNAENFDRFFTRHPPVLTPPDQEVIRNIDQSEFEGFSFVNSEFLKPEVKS
Outline: as §1

[8] = biological target: T8, MET (cMet) Y1235D (Homo sapiens, UniProt P08581, Y1235D)
T8 construct: purchased Thermo Fisher Scientific
T8 sequence (P08581 25-1390 Y1235D): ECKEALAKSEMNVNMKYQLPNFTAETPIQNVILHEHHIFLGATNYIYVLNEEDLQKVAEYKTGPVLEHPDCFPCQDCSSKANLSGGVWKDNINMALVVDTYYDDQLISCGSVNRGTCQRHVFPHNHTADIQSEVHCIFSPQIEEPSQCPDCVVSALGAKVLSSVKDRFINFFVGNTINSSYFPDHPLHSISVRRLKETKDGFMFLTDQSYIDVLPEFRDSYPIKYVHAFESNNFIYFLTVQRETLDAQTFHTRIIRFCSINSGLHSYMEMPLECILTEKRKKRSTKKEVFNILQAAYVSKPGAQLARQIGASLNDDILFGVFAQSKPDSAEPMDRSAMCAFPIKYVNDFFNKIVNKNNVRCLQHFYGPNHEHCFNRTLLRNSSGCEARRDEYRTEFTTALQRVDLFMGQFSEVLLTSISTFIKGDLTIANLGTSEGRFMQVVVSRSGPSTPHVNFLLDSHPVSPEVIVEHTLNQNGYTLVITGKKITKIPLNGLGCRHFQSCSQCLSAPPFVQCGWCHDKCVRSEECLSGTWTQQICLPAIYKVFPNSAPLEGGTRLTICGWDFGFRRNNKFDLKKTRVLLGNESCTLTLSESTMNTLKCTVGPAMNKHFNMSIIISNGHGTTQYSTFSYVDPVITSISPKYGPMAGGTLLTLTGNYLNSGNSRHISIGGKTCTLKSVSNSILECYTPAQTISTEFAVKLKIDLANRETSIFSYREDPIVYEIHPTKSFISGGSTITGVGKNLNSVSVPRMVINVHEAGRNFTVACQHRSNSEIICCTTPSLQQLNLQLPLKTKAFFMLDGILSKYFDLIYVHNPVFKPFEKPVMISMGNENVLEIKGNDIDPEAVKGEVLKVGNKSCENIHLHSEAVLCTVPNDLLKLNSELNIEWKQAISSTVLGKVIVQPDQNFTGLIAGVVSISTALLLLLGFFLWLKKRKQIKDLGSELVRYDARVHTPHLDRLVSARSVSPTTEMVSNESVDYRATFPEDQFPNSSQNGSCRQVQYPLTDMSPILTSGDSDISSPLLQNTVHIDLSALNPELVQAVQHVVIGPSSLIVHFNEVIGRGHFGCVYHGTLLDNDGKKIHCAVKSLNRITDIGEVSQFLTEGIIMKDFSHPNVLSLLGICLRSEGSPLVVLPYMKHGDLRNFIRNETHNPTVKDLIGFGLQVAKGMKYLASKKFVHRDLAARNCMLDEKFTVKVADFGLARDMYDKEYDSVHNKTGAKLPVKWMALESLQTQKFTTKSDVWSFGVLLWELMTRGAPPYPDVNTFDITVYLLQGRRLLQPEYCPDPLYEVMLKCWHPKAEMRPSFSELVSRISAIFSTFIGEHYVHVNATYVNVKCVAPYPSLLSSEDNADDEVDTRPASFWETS
Outline: as §1

SMILES | inhibition at 1 µM [1] [%] | inhibition at 10 µM [1] [%] | inhibition at 1 µM [2] [%] | inhibition at 10 µM [2] [%] | inhibition at 1 µM [3] [%] | inhibition at 10 µM [3] [%] | inhibition at 1 µM [4] [%] | inhibition at 10 µM [4] [%] | inhibition at 1 µM [5] [%] | inhibition at 10 µM [5] [%] | inhibition at 1 µM [6] [%] | inhibition at 10 µM [6] [%] | inhibition at 1 µM [7] [%] | inhibition at 10 µM [7] [%] | inhibition at 1 µM [8] [%] | inhibition at 10 µM [8] [%]
COc1ccc2c(c1OC)c(=O)n1c3ccc(O)cc3c3ccnc2c31 [MW01, 5-Hydroxy-10,11-dimethoxy-9H-benzo[c]indolo[3,2,1-ij][1,5]naphthyridin-9-one] | 8 | 10 | 51 | 80 | 19 | 5 | 64 | 80 | 11 | 15 | 12 | 10 | 11 | 14 | -2 | 4
COc1ccc2cc3c(N)nn(C(=O)c4cccc(N(C)C)c4)c3nc2c1 [MW05, (3-Amino-7-methoxypyrazolo[3,4-b]quinolin-1-yl)-[3-(dimethylamino)phenyl]methanone] | 9 | 9 | 4 | -8 | -2 | 12 | 9 | 11 | 9 | 2 | 8 | 6 | 9 | -5 | 1 | -44
